Measured values from US20240261375A1, “PHARMACEUTICAL COMPOSITION FOR TREATING OR PREVENTING DISORDER ASSOCIATED WITH ADMINISTRATION OF ANTICANCER AGENT” (LTT BIO-PHARMA CO., LTD., priority 2021, published 2024).
Read-outs that look alike come from different tables or passages of the source.

How the values were obtained:
RAW cells [1] = assay: Active oxygen production in RAW cells (MitoSOX Red); format: cell-based
Description: RAW cells were seeded on a 96-well plate for fluorescence at 20 000 cells/well (D-MEM high glucose medium containing 10% inactivated FBS). […] Sixteen hours later, cells were treated with an HBSS solution containing dissolved MitoSOX™ Red Mitochondrial Superoxide Indicator (Invitrogen™) for 30 minutes, and the medium was replaced with D-MEM high glucose medium containing 1% inactivated FBS. Active oxygen production in mitochondria was determined by measuring fluorescence (Ex 510 nm, Em 580 nm) by using a plate reader (Infinite M Plex, Tecan). Cells for four wells were analyzed for each group.

RAW cells [2] = assay: Toxicity of anticancer agents against RAW cells (CellTiter-Glo viable cell count); format: cell-based
Description: RAW cells were seeded on a 96-well plate at 20 000 cells/well (D-MEM high glucose medium containing 10% inactivated FBS). […] The number of viable cells was counted 24 hours later by measuring chemical luminescence by using CellTiter-Glo™ 2.0 Cell Viability Assay (Promega) and a plate reader (Tecan, Infinite M Plex). Cells for four wells were analyzed for each group.

[3] = system: Large intestine cancer cells (colo320, HCT116); assay: Proliferation of large intestine cancer cells (CCK-8); format: cell-based; settings: OXA alone, 3-fold dilutions from 100 μM, 72 hours; FIG. 6
Description: Large intestine cancer cells (colo320, HCT116) were added to RPM1640 medium (Thermo Fisher Scientific Inc.) containing 10% fetal bovine serum and 100 units/mL penicillin-streptomycin (Gibco BRL) and cultured at 37° C. in a 5% CO2 incubator.
Cells were seeded on a 96-well plate at 10 000 cells/well and treated with a test solution 24 hours later. A test solution containing OXA alone was diluted 3-fold from 100 μM (10 levels) and added to a 96-well plate. A test solution containing OXA+PC-SOD was obtained by adding the same concentrations of OXA to PC-SOD (50 μg/mL) (n=3 per group). After cells were cultured for 72 hours, a CCK-8 solution was added in a volume of 1/10 of the solution in each well, and the mixture was measured at 490 nm of absorbance (Tecan, Tecan Japan). Data were expressed with mean±standard error (SEM). It should be noted that experiment conditions were allowed to be changed as required.

[4] = system: PC12 cells differentiated by NGF; assay: Neurite retraction in NGF-differentiated PC12 cells caused by anticancer agents; format: cell-based, rat; settings: oxaliplatin 20 μM, 24 hours, FIG. 8
Description: Rat adrenal gland pheochromocytoma-derived PC12 cells are known to be differentiated into neuron-like cells having neurites by nerve growth factor (NGF) and are widely used as a nerve cell model. To assess the neurite-protective action of PC-SOD, the effect of PC-SOD in neurite disorder caused by various anticancer agents was analyzed by using PC12 cells differentiated by NGF.
PC12 cells were seeded on a 24-well plate coated with collagen at 5 000 cells/well. […] The images of cells were captured by using a microscope (BZ-X800, Keyence Corporation), and the neurite lengths were measured by using an image analysis software ImageJ (NIH).
(§1) PC12 cells were seeded on a 24-well plate coated with collagen at 5 000 cells/well. […] After neurite elongation, cells were cultured by using differentiation media each containing carboplatin (with a final concentration of 50 μM) alone or carboplatin and PC-SOD (with final concentrations of 10, 20, 50, and 100 μg/mL) for 24 hours. The images of cells were captured by using a microscope (BZ-X800, Keyence Corporation), and the neurite lengths were measured by using an image analysis software ImageJ (NIH).
as §1, with “containing paclitaxel (abbreviated as PTX in the figure of results) alone” for “containing carboplatin”, “of 0.1” for “of 50”, “μM)” for “μM) alone”, “or paclitaxel” for “or carboplatin”, “10,” for “10, 20,”

[5] = system: liver of OXA-treated rats; assay: Pathological assessment of liver disorder caused by oxaliplatin (HE staining); format: in vivo, rat; settings: PC-SOD 1 mg/kg, mangafodipir dose not given, FIG. 5
Excerpt: A liver tissue was collected and fixed with 10% neutral buffered formalin to prepare a paraffin block by using Histos 5 (Milestone) and an embedding center (EG1160, Leica). The sample block was thinly sliced at a thickness of 3 μm by using a microtome (MR2245, Leica) to prepare a slide. The prepared slide was stained by HE staining, enclosed, and observed at 200 and 400-fold magnifications by using the optical microscope function of All-in-One Fluorescence Microscope (BZ-X800, Keyence Corporation). Observation and assessment were performed by observing the whole section. Two to four representative tissue images were randomly taken up, and alteration in the tissue structure, such as inflammation and necrosis, was observed and assessed (Scale bar=200 μm).

[6] = anticancer agent alone, 16 hours, FIG. 13-1
[7] = anticancer agent alone, 24 hours, FIG. 12-1

Molecule	active oxygen production in mitochondria of RAW cells (RAW cells [1]; [6])	number of viable RAW cells (RAW cells [2]; [7])	active oxygen production in mitochondria of RAW cells (RAW cells [1])	other results
N.N.O=C([O-])C1(C(=O)[O-])CCC1.[Pt+2] [carboplatin]	induced active oxygen production dependently on the concentration of the anticancer agent	decreased the number of viable cells dependently on the concentration of the anticancer agent	–	–
N.N.[Cl][Pt][Cl] [cisplatin]	–	–	induced active oxygen production dependently on the concentration of the anticancer agent	–
Nc1ccn([C@@H]2O[C@H](CO)[C@@H](O)C2(F)F)c(=O)n1 [gemcitabine]	–	–	induced active oxygen production dependently on the concentration of the anticancer agent	number of viable RAW cells (RAW cells [2]): decreased the number of viable cells dependently on the concentration of the anticancer agent
O=C1[O][Pt]2([NH][C@@H]3CCCC[C@H]3[NH]2)[O]C1=O [oxaliplatin]	induced active oxygen production dependently on the concentration of the anticancer agent	decreased the number of viable cells dependently on the concentration of the anticancer agent	–	proliferation of large intestine cancer cells [3]: Suppression of proliferation of large intestine cancer cells caused by OXA was confirmed
mangafodipir [reference compound]	–	–	–	neurite retraction caused by oxaliplatin ([4]; test substance 5 μg/mL): a weak suppressing tendency was observed; neurite retraction caused by oxaliplatin ([4]; test substance at concentrations higher than 5 μg/mL (up to 50 μg/mL)): no higher retraction suppressing effect was observed; necrosis of liver cells caused by OXA [5]: the suppressive effect on necrosis of liver cells caused by OXA was not observed
